Results: US11542259B2, “Compounds for the treatment of kinase-dependent disorders” (Exelixis, Inc., priority 2018, dated 2023)

Legend:
Type in all cases: cell-based
AXL = AXL (Homo sapiens (Human), UniProt P30530); assay: AXL autophosphorylation ELISA in A-172 cells; settings: cellular, Gas6 stimulated
How it was run: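 Serum-starved (24 h) A-172 glioblastoma cells pretreated 1 h with compounds (8-point curve, 0.3% DMSO), then stimulated 15 min with 1 μg/mL Gas6. Lysate phospho-AXL measured by sandwich ELISA against a phospho-AXL standard; IC50 from 4-parameter logistic fit between DMSO and reference-inhibitor controls.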

Met = Met (Homo sapiens (Human), UniProt P08581); assay: Met autophosphorylation ELISA in PC-3 cells; settings: cellular, HGF stimulated, read-out: c-Met IC50
How it was run: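 PC-3 cells serum-starved 3 h, treated 1 h with 8-point compound series (0.3% DMSO), then stimulated with 100 ng/mL human HGF for 10 min. Lysate phospho-Met (panTyr) measured by sandwich ELISA; IC50 from 4-parameter logistic fit against DMSO and reference-inhibitor controls.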

Mer = Mer (Homo sapiens (Human), UniProt Q12866); assay: Mer autophosphorylation ELISA in transient transfected 293A cells; settings: cellular, MERTK transfected 293A cells
Protocol: 293A cells (Thermo Fisher #R70507) were seeded at 1.5×10^6 cells/well onto 100 mm dish (Greiner #664169), in DMEM (Thermo Fisher #11995-040) containing 10% FBS (Thermo Fisher #26140-079), 1% MEM NEAA (Thermo Fisher #11140-050), 1% GlutaMax (Thermo Fisher #35050-061), and 1% Penicillin Streptomycin (Thermo Fisher #15140-122). 293A cells were incubated at 37° C., 5% CO2 for 24 h and then transfected with 6 μg MERTK DNA (Genecopoeia #EX-Z8208-M02) using TransIT LT1 transfection reagent (Mirus-Bio #MIR2305). After 24 h incubation, the transfected 293A cells were seeded at 1×10^5 cells/well onto 96-well plates (Corning #3904) in DMEM growth medium overnight. Test compounds were serially diluted to produce an 8-point dose curve in fresh serum-free medium to a final concentration of 0.3% DMSO (vehicle) and added to the cells and incubated for 1 h. Cells were then immediately lysed with 150 μL of cold 1× lysis buffer [20 mM Tris, 137 mM sodium chloride, 2 mM EDTA, 10% glycerol, 1% NP-40 alternative, 1 mM activated sodium orthovanadate, 1 mM PefaBloc SC (Sigma-Aldrich #11429868001), protease/phosphatase inhibitor tablet (Thermo Fisher #A32959)]. Lysates were clarified by centrifugation and 50 μL/well added into the human phospho-Mer DuoSet IC ELISA (R&D Systems #DYC2579-2). Assay was performed according to manufacturer's instructions and sample phospho-Mer concentrations were extrapolated using human phospho-Mer control (R&D Systems #841793) as a standard. Positive control wells (100% activity) contained DMSO-treated cell lysates. Negative control wells (0% activity) contained reference inhibitor-treated cell lysates. IC50 values were calculated by nonlinear regression analysis using a 4-parameter logistic curve fit in ActivityBase XE (IDBS).

KDR = KDR (Homo sapiens (Human), UniProt P35968); assay: KDR autophosphorylation ELISA in HUVEC cells; settings: cellular, VEGF165 stimulated
How it was run: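 Phospho-KDR levels in lysates were measured by ELISA and referenced to stimulated-vehicle (100%) and unstimulated (0%) wells, IC50 from 4-parameter logistic fit. HUVEC, starved 24 h in serum-free medium, received an 8-point compound series (0.3% DMSO) for 1 h before a 5 min 100 ng/mL VEGF165 challenge.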

Chain of AXL (P30530 26-894): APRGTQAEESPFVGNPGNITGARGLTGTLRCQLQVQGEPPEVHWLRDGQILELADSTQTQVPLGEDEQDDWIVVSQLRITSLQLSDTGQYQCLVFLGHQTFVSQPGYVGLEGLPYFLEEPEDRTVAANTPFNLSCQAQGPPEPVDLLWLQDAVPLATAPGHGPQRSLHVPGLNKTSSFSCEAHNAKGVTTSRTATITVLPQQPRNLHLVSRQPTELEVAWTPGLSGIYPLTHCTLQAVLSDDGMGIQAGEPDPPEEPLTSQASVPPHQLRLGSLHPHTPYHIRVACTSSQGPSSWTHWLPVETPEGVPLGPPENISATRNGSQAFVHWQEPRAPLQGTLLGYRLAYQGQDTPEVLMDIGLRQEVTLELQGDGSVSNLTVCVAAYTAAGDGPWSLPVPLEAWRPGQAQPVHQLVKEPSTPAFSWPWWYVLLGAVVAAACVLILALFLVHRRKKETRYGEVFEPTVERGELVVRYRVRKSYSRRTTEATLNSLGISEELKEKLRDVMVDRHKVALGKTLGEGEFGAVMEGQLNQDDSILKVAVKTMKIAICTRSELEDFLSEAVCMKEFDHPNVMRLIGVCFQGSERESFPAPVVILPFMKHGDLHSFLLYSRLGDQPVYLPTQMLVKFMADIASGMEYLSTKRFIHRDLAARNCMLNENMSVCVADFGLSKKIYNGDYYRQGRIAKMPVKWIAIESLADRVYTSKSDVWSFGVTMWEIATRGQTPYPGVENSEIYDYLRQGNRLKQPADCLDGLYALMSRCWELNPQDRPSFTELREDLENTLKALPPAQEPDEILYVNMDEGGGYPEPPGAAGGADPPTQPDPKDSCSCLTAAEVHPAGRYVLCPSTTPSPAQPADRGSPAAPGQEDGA
Chain of Mer (Q12866 21-999): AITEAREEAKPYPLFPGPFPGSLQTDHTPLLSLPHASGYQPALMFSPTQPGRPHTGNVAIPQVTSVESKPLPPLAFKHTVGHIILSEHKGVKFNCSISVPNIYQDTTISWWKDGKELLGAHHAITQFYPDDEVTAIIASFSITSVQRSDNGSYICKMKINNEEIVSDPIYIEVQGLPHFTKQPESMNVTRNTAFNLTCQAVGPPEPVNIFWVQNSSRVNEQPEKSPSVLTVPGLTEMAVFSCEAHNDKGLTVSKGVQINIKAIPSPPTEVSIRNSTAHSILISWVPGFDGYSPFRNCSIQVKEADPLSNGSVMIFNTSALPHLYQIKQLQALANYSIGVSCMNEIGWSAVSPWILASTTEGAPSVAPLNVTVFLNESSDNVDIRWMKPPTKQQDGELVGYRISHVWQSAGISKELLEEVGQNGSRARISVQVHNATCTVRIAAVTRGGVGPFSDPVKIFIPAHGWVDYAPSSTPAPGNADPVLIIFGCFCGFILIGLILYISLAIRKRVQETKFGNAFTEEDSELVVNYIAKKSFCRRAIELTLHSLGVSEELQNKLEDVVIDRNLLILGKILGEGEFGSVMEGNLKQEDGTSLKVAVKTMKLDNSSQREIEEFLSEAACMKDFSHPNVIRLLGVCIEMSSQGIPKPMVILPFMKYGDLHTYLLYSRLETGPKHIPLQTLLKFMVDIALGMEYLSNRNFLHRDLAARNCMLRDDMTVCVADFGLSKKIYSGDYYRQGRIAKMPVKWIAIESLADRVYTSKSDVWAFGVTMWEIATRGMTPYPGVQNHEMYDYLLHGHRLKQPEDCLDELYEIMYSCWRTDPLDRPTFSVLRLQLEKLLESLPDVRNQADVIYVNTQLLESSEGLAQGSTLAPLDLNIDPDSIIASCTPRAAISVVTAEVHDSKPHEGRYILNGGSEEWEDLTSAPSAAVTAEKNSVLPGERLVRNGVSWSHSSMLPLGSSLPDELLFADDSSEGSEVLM
Chain of Met (P08581 25-1390): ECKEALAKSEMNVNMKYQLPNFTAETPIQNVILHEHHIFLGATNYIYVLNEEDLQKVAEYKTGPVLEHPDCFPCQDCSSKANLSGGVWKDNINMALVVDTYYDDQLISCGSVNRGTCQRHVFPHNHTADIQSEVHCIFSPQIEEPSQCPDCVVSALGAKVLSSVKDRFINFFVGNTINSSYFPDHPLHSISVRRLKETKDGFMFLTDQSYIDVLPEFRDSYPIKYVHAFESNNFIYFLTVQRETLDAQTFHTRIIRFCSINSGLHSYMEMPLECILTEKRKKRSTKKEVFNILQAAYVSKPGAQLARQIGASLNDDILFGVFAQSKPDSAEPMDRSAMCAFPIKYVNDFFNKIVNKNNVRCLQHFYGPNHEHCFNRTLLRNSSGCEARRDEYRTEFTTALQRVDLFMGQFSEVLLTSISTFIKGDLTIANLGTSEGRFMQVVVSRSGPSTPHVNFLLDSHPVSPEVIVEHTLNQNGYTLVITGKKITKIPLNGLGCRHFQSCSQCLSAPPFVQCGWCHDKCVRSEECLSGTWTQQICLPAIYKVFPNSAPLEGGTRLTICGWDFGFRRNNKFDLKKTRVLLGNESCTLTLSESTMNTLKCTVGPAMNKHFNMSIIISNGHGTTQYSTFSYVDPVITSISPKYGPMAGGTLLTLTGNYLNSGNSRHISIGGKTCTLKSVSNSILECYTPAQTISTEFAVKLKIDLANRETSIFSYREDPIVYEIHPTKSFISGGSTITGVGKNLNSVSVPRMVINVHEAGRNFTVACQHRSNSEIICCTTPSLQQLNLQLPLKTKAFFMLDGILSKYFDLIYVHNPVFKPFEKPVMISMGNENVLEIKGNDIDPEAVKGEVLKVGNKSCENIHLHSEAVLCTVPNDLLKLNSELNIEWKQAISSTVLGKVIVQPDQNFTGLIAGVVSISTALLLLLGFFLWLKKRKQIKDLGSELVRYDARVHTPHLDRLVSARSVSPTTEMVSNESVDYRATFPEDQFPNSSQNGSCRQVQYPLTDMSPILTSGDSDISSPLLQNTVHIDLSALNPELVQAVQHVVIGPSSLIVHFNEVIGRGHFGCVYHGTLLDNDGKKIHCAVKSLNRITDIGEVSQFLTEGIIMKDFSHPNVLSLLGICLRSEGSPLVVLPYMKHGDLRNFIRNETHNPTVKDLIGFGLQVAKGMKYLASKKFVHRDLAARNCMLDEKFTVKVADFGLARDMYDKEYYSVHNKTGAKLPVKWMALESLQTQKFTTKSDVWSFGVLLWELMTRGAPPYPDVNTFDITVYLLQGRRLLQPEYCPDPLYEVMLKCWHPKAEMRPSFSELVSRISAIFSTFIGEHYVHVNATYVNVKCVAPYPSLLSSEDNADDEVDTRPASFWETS
Chain of KDR (P35968 20-1356): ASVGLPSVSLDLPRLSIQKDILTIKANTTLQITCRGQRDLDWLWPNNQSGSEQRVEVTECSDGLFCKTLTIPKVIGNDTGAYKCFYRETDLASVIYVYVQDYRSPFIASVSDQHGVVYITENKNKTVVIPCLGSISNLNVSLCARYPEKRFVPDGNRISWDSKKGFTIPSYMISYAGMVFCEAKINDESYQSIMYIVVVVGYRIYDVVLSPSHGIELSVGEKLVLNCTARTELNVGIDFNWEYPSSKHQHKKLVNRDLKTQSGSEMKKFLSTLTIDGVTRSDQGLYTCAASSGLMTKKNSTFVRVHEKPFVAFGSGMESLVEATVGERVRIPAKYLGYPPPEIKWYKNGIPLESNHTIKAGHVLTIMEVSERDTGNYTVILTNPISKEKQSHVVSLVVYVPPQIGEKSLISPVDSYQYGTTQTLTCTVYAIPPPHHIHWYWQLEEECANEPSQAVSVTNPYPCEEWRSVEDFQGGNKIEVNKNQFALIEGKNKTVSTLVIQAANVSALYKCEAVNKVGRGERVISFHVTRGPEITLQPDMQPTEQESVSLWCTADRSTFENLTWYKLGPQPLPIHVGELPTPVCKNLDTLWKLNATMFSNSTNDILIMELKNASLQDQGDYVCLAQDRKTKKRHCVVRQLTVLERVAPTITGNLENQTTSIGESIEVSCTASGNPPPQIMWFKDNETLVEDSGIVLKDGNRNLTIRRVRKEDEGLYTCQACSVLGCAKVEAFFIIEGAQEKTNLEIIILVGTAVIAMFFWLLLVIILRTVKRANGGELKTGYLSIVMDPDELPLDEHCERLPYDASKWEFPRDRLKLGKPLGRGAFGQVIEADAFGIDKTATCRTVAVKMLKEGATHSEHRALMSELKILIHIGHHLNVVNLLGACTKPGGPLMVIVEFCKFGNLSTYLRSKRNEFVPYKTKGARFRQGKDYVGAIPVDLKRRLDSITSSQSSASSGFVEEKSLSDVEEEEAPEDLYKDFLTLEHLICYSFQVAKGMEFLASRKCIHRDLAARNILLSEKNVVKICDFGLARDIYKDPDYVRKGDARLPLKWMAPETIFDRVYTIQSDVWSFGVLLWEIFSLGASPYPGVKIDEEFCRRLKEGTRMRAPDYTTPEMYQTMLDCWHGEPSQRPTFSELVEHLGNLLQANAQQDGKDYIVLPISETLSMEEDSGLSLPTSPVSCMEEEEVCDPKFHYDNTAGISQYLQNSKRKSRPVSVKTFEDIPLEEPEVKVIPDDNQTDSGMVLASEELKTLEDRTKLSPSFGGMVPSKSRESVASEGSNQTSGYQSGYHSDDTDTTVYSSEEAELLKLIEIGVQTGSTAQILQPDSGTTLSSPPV

SMILES	IC50 (AXL) [nM]	IC50 (Met) [nM]	IC50 (Mer) [nM]	IC50 (KDR) [nM]
O=C(NOC[C@H](O)CO)c1ccc2c(Oc3ccc(NC(=O)C4(C(=O)Nc5ccc(F)cc5)CC4)cc3)ccnc2c1 [Compound 169, 1-N-[4-[7-[[(2R)-2,3-Dihydroxypropoxy]carbamoyl]quinolin-4-yl]oxyphenyl]-1-N′-(4-fluorophenyl)cyclopropane-1,1-dicarboxamide]	100 to 300	100 to 300	> 300	100 to 300
COc1cc2nccc(Oc3ccc(NC(=O)C4(C(=O)Nc5ccc(F)cc5)CC4)cc3)c2cc1C(=O)NN [Compound 32, 1-N′-(4-fluorophenyl)-1-N-[4-[6-(hydrazinecarbonyl)-7-methoxyquinolin-4-yl]oxyphenyl]cyclopropane-1,1-dicarboxamide]	≤ 10	10 to 100	≤ 10	≤ 10
COc1cc2nccc(Oc3ccc(NC(=O)C4(C(=O)Nc5ccc(F)cc5)CC4)cc3)c2cc1C(=O)NOCC(O)CO (single isomer, unassigned) [Compound 30, 1-N-[4-[6-(2,3-dihydroxypropoxycarbamoyl)-7-methoxyquinolin-4-yl]oxyphenyl]-1-N′-(4-fluorophenyl)cyclopropane-1,1-dicarboxamide]	100 to 300	100 to 300	> 300	10 to 100
CO/N=C/c1ccc2c(Oc3ccc(NC(=O)C4(C(=O)Nc5ccc(F)cc5)CC4)cc3)ccnc2c1 [Compound 278, 1-N′-(4-Fluorophenyl)-1-N-[4-[7-[(E)-methoxyiminomethyl]quinolin-4-yl]oxyphenyl]cyclopropane-1,1-dicarboxamide]	100 to 300	100 to 300	100 to 300	100 to 300
CNC(=O)c1cc2c(Oc3ccc(NC(=O)C4(C(=O)Nc5ccc(F)cc5C)CC4)cc3F)ccnc2cc1OC [Compound 265, 1-N-[3-Fluoro-4-[7-methoxy-6-(methylcarbamoyl)quinolin-4-yl]oxyphenyl]-1-N′-(4-fluoro-2-methylphenyl)cyclopropane-1,1-dicarboxamide]	≤ 10	10 to 100	10 to 100	10 to 100
CNC(=O)c1cc2c(Oc3ccc(NC(=O)C4(C(=O)Nc5ccc(F)cc5C5CC5)CC4)cc3F)ccnc2cc1OC [Compound 270, 1-N′-(2-Cyclopropyl-4-fluorophenyl)-1-N-[3-fluoro-4-[7-methoxy-6-(methylcarbamoyl)quinolin-4-yl]oxyphenyl]cyclopropane-1,1-dicarboxamide]	10 to 100	10 to 100	10 to 100	10 to 100
CNC(=O)c1cc2nccc(Oc3c(F)cc(NC(=O)C4(C(=O)Nc5ccc(F)cc5)CC4)c(F)c3F)c2cc1C [Compound 292, 1-N-(4-Fluorophenyl)-1-N′-[2,3,5-trifluoro-4-[6-methyl-7-(methylcarbamoyl)quinolin-4-yl]oxyphenyl]cyclopropane-1,1-dicarboxamide]	10 to 100	10 to 100	10 to 100	> 300
COc1cc2nccc(Oc3ccc(NC(=O)C4(C(=O)Nc5ccc(F)cc5)CC4)cc3)c2cc1C(=O)NOCCO [Compound 27, 1-N′-(4-fluorophenyl)-1-N-[4-[6-(2-hydroxyethoxycarbamoyl)-7-methoxyquinolin-4-yl]oxyphenyl]cyclopropane-1,1-dicarboxamide]	≤ 10	10 to 100	10 to 100	≤ 10
COc1cc2nccc(Oc3ccc(NC(=O)C4(C(=O)Nc5ccc(F)cc5)CC4)cc3)c2cc1-c1cnco1 [Compound 192, 1-N′-(4-Fluorophenyl)-1-N-[4-[7-methoxy-6-(1,3-oxazol-5-yl)quinolin-4-yl]oxyphenyl]cyclopropane-1,1-dicarboxamide]	≤ 10	10 to 100	≤ 10	≤ 10
